We go through twelve compounds from US8669292B2, “Therapeutic formulation” (Orion Therapeutics, LLC, priority 2005, dated 2014).

Experiment [1] relates to HCT-116 human colon cancer cells. Put plainly: IC50 assay (concentration-cell number study). It counts as cell-based. Conditions: HCT-116, 120 h exposure. The method, then:
Concentration-cell number studies (IC50 assay) were carried out utilizing 12 separate compositions (numbered 1-12 below) against 13 different cancer cell lines (see Table 6). […] On day 3, cells are exposed to different concentrations of the drug. Flasks are incubated for 120 h (5 d) in a 5% CO2 incubator at 37° C. and the cells harvested with trypsin, washed once with Hanks Balanced Salt Solution (HBSS) and re-suspended in HBSS containing 0.08% Trypan Blue. Both viable and dead cells are counted using a hemocytometer. Viable cell numbers are normalized to an untreated control and plotted as a function of drug concentration. The IC50 value is determined using Prism 4.0.

In another experiment the test system is LNCaP Prostate Cancer. The experiment can be described thus: IC50 assay (concentration-cell number study). It counts as cell-based. Conditions: 120 h exposure.
Another experiment deals with MDA-235 Breast Cancer. Put plainly: IC50 assay (concentration-cell number study). It counts as cell-based. Conditions: 120 h exposure.
Experiment [2] is described as follows: NORAC (Brunswick Test # A105). It counts as biochemical. Conditions: Cantron oral liquid scores converted from TE/L to TE/g. The protocol: Peroxyl radical scores are measured in the ORAC test (Oxygen Radical Absorption Capacity). Hydroxyl Radicals are tested in the HORAC test (Hydroxyl Radical Absorption Capacity). Peroxynitrite Radicals are tested in the NORAC test (Peroxynitrite Radical Absorption Capacity). Superoxide Radicals are measured in the SOD test (Superoxide Radical Absorption Capacity). Applicant's compounds and compositions were tested by the NORAC test (Brunswick test # A 105), which measures the activity of a given antioxidant against peroxynitrite radicals. NORAC tests were based on the method of Chung H. et al (2001) Journal Agricultural of Food Chemistry, 49: 3614-3621. Scores are expressed in micromoles of trolox equivalent per liter (TE/L) for liquid formulations and Trolox equivalent per gram (TE/g) for dry powders.

Experiment [3] can be described thus: SORAC (Brunswick Test # A106). It counts as biochemical. Conditions: Cantron oral liquid scores converted from unitsSODeq/L to unitsSODeq/g. The method, then:
Peroxyl radical scores are measured in the ORAC test (Oxygen Radical Absorption Capacity). Hydroxyl Radicals are tested in the HORAC test (Hydroxyl Radical Absorption Capacity). Peroxynitrite Radicals are tested in the NORAC test (Peroxynitrite Radical Absorption Capacity). Superoxide Radicals are measured in the SOD test (Superoxide Radical Absorption Capacity). Applicant's compounds and compositions were tested by the SORAC test (Brunswick test #106), which measures the activity of a given antioxidant against Superoxide radicals. The tests were conducted based on the method of Zhao et al (1999) Journal of Agricultural and Food Chemistry, (1999), 47: 2537-2543. The calibration standard was SOD and was expressed as a unit SOD equivalent per liter (unitsSODeq/L) for liquid formulations and unit SOD equivalent per gram (unitsSODeq/g) for dry powders.

Experiment [4] can be described thus: ORAC lipo (Brunswick Test # A102). It counts as biochemical. Conditions: Cantron oral liquid scores converted from TE/L to TE/g. The method, then: (§1) Peroxyl radical scores are measured in the ORAC test (Oxygen Radical Absorption Capacity). Hydroxyl Radicals are tested in the HORAC test (Hydroxyl Radical Absorption Capacity). Peroxynitrite Radicals are tested in the NORAC test (Peroxynitrite Radical Absorption Capacity). Superoxide Radicals are measured in the SOD test (Superoxide Radical Absorption Capacity). The ORAC test measures the antioxidant activity against peroxyl radicals by determining how many peroxyl free radicals can be absorbed by a given antioxidant as compared to the vitamin E analog-Trolox. The result is expressed as micromoles of Trolox equivalent per liter (TE/L) for liquid formulations and Trolox equivalent per gram (TE/g) for dry powders. Brunswick tested the Applicant's compounds for antioxidant activity against both hydrophilic and lipophilic peroxyl radicals as expressed in the ORAC total (see table 7).

For experiment [5], the system named is 13 different cancer cell lines. Put plainly: IC50 assays, average or range over all cell lines. It counts as cell-based. Conditions: average of 13 cell lines.
Protocol: (§2) These cells are grown in 5 ml culture medium (RPMI-1640+15% Bovine Calf serum containing 1% penicillin-streptomycin, and 1% Glutamine) at 37° C. and 5% CO2 at a starting concentration of 5×10^4 cells/T25 flask. On day 3, cells are exposed to different concentrations of the drug. Flasks are incubated for 120 h (5 d) in a 5% CO2 incubator at 37° C. and the cells harvested with trypsin, washed once with Hanks Balanced Salt Solution (HBSS) and re-suspended in HBSS containing 0.08% Trypan Blue. Both viable and dead cells are counted using a hemocytometer. Viable cell numbers are normalized to an untreated control and plotted as a function of drug concentration. The IC50 value is determined using Prism 4.0.
(§3) Cell Lines utilized in IC50 Assays: HCT-116 human colon cancer cells, H125 Lung Cancer, MCF-7, Breast Cancer, MDA-235 Breast Cancer, LNCaP Prostate Cancer, OVAR-5 Ovarian Cancer, U251N Brain Cancer Sarcoma 180, Panc 01Pancreatic Cancer, CCRF-CEM Leukemia, HEP-G2 Liver Cancer, L1210 Leukemia, Colon 38 Colon Cancer.
Experiment [6] can be described thus: ORAC hydro (Brunswick Test # A101). Conditions: Cantron oral liquid scores converted from TE/L to TE/g. It counts as biochemical. The protocol:
as §1

The next experiment concerns Colon 38 Colon Cancer. The experiment can be described thus: IC50 assay (concentration-cell number study). It counts as cell-based. The following applies: 120 h exposure.
The next experiment has as its system CCRF-CEM Leukemia. Put plainly: IC50 assay (concentration-cell number study). It counts as cell-based. The following applies: 120 h exposure.
Another experiment concerns L1210 Leukemia. Put plainly: IC50 assay (concentration-cell number study). It counts as cell-based. Conditions: 120 h exposure.
The test system of another experiment is MCF-7 Breast Cancer. The experiment can be described thus: IC50 assay (concentration-cell number study). It counts as cell-based. The following applies: 120 h exposure.
A further experiment concerns U251N Brain Cancer. The experiment can be described thus: IC50 assay (concentration-cell number study). It counts as cell-based. The following applies: 120 h exposure.
Experiment [7] in a line: HORAC (Brunswick Test # A104). It counts as biochemical. The following applies: Cantron oral liquid scores converted from CAE/L to CAE/g. The protocol: Peroxyl radical scores are measured in the ORAC test (Oxygen Radical Absorption Capacity). Hydroxyl Radicals are tested in the HORAC test (Hydroxyl Radical Absorption Capacity). Peroxynitrite Radicals are tested in the NORAC test (Peroxynitrite Radical Absorption Capacity). Superoxide Radicals are measured in the SOD test (Superoxide Radical Absorption Capacity). […] The result is expressed as micromoles of caffeic acid equivalent per liter (CAE/L) for liquid formulations and caffeic acid equivalent per gram (CAE/g) for dry powders.

In another experiment the test system is HEP-G2 Liver Cancer. The experiment can be described thus: IC50 assay (concentration-cell number study). It counts as cell-based. Conditions: 120 h exposure.
The test system of another experiment is Sarcoma 180. Put plainly: IC50 assay (concentration-cell number study). It counts as cell-based. The following applies: 120 h exposure.
The nature of experiment [8]: ORAC total (Brunswick Test # A103). It counts as biochemical. The following applies: Cantron oral liquid scores converted from TE/L to TE/g. The protocol: as §1
A further experiment deals with OVAR-5 Ovarian Cancer. Put plainly: IC50 assay (concentration-cell number study). It counts as cell-based. The following applies: 120 h exposure.
In a further experiment the test system is H125 Lung Cancer. The experiment can be described thus: IC50 assay (concentration-cell number study). Conditions: 120 h exposure. It counts as cell-based.
Experiment [9] has as its system Panc 01 Pancreatic Cancer. The experiment can be described thus: IC50 assay (concentration-cell number study). The following applies: 120 h exposure. It counts as cell-based.
Protocol: (§4) Concentration-cell number studies (IC50 assay) were carried out utilizing 12 separate compositions (numbered 1-12 below) against 13 different cancer cell lines (see Table 6). These cells are grown in 5 ml culture medium (RPMI-1640+15% Bovine Calf serum containing 1% penicillin-streptomycin, and 1% Glutamine) at 37° C. and 5% CO2 at a starting concentration of 5×10^4 cells/T25 flask. On day 3, cells are exposed to different concentrations of the drug. Flasks are incubated for 120 h (5 d) in a 5% CO2 incubator at 37° C. and the cells harvested with trypsin, washed once with Hanks Balanced Salt Solution (HBSS) and re-suspended in HBSS containing 0.08% Trypan Blue. Both viable and dead cells are counted using a hemocytometer. Viable cell numbers are normalized to an untreated control and plotted as a function of drug concentration. The IC50 value is determined using Prism 4.0.
For experiment [10], the system named is HCT-116 human colon cancer cells. Put plainly: Clonogenic dose response. It counts as cell-based. The protocol: Clonogenic survival of the cells was measured by a standard tissue culture procedure.
Asimicin was prepared in ethanol. Clonogenic survival of the cells was measured by a standard tissue culture procedure.

Setting [11] is: Homo sapiens, HCT-116, 120 h, read-out: IC50.

≈ marks a conversion by molar mass, not a printed value. Read-outs that look alike come from different tables or passages of the source.

Protocol for CCRF-CEM Leukemia: as §4
Protocol for Colon 38 Colon Cancer: as §2, §3
Protocol for H125 Lung Cancer: as §2, §3
Protocol for HEP-G2 Liver Cancer: as §4
Protocol for L1210 Leukemia: as §4
Protocol for LNCaP Prostate Cancer: as §4
Protocol for MCF-7 Breast Cancer: as §4
Protocol for MDA-235 Breast Cancer: as §4
Protocol for OVAR-5 Ovarian Cancer: as §4
Protocol for Sarcoma 180: as §4
Protocol for U251N Brain Cancer: as §4

As for `O=c1[nH]cc(F)c(=O)[nH]1` [5-Fluorouracil, reference compound], in experiment [1] (setting [11]), the IC50 turned out to be 0.15 µg/mL (≈ 1.15 µM).
The same measure, in the same setting: for `COc1cccc2c1C(=O)c1c(O)c3c(c(O)c1C2=O)C[C@@](O)(C(=O)CO)C[C@@H]3O[C@H]1C[C@H](N)[C@H](O)[C@H](C)O1` [Adriamycin, reference compound] the value was 0.03 µg/mL (≈ 0.0552 µM); for `O=C(O)CCCCC1CCSS1` (stereo not drawn) [Alpha-lipoic acid, reference compound], greater than 100 µg/mL.
With `O=C1C(O)=C(O)C(=O)C(O)=C1O` [Composition 4, tetrahydroxy-1,4-quinone], the concentration for half-maximal inhibition (IC50) in the experiment with LNCaP Prostate Cancer stood at 54 µg/mL (≈ 314 µM); with MDA-235 Breast Cancer it was 5.8 µg/mL (≈ 33.7 µM); in [1] it was 17.0 µg/mL (≈ 98.8 µM); in experiment [1] (listed as 4) it was 17 µg/mL (≈ 98.8 µM); in the experiment with Colon 38 Colon Cancer, 19 µg/mL (≈ 110 µM); in the experiment with CCRF-CEM Leukemia it was 7.0 µg/mL (≈ 40.7 µM). In addition, the concentration for half-maximal inhibition (IC50) with L1210 Leukemia stood at 49 µg/mL (≈ 285 µM); in the experiment on MCF-7 Breast Cancer, 5.9 µg/mL (≈ 34.3 µM); in the experiment on U251N Brain Cancer it was 8.0 µg/mL (≈ 46.5 µM); in the experiment on HEP-G2 Liver Cancer it was 8.5 µg/mL (≈ 49.4 µM); with Sarcoma 180 it was 51 µg/mL (≈ 296 µM); in the experiment on OVAR-5 Ovarian Cancer, 28 µg/mL (≈ 163 µM). Further, the concentration for half-maximal inhibition (IC50) amounted to 53 µg/mL (≈ 308 µM) in the experiment with H125 Lung Cancer and 24 µg/mL (≈ 139 µM) in [9]. For the same compound, in experiment [2], the “NORAC SCORE” value came out at 438 micromoles TE/g. Also, the “SOD SCORE” value in experiment [3] is listed as 145,000 unitsSODeq/g. The “ORAC lipo SCORE” value in [4] came to 1 micromoles TE/g. Besides, the “IC50 AVG.” value in [5] was found to be 25 µg/mL (≈ 145 µM). Besides, the “ORAC hydro SCORE” value in [6] was 1,507 micromoles TE/g. Moreover, the “HORAC SCORE” value in experiment [7] is reported as 129 micromoles CAE/g. Further, the “TOTAL ORAC SCORE” value in [8] is recorded as 1,508 micromoles TE/g.
Consider `O=c1c(O)c(O)c(=O)c1=O` [Croconic Acid], for which the “NORAC SCORE” value in [2] worked out at 1 micromoles TE/g. Further, the “SOD SCORE” value in [3] was 0 unitsSODeq/g. For the same compound, in experiment [4], the “ORAC lipo SCORE” value is reported as 0 micromoles TE/g. Further, the “ORAC hydro SCORE” value in experiment [6] is given as 1,106 micromoles TE/g. Moreover, the “HORAC SCORE” value in experiment [7] was found to be 19 micromoles CAE/g. Moreover, the “TOTAL ORAC SCORE” value in [8] was 1,106 micromoles TE/g.
Consider `CC(=O)O[C@H]1C(=O)[C@@]2(C)[C@H]([C@H](OC(=O)c3ccccc3)[C@]3(O)C[C@H](OC(=O)[C@H](O)[C@@H](NC(=O)c4ccccc4)c4ccccc4)C(C)=C1C3(C)C)[C@]1(OC(C)=O)CO[C@@H]1C[C@@H]2O` [Taxol, reference compound], for which, in experiment [1] (setting [11]), the IC50 was determined as 0.0002 µg/mL (≈ 0.000234 µM).
Same read-out and setting: with `CC[C@]1(O)C[C@H]2CN(CCc3c([nH]c4ccccc34)[C@@](C(=O)OC)(c3cc4c(cc3OC)N(C=O)[C@H]3[C@@](O)(C(=O)OC)[C@H](OC(C)=O)[C@]5(CC)C=CCN6CC[C@]43[C@@H]65)C2)C1` [Vincristine, reference compound] the figure was 0.005 µg/mL (≈ 0.00606 µM); with `O=C1O[C@H]([C@@H](O)CO)C(O)=C1O` [Vitamin C, reference compound], greater than 100 µg/mL.
Turning to `N.N.[Cl][Pt][Cl]` [cis-Platinum, reference compound], the IC50 in experiment [1] was 0.10 µg/mL.
As to Acetogenin [Composition 3], the IC50 in the experiment on LNCaP Prostate Cancer came to 0.005 µg/mL; with MDA-235 Breast Cancer, 0.0013 µg/mL; in experiment [1], 0.002 µg/mL; in experiment [1] (listed as 3), 0.002 µg/mL; in the experiment with Colon 38 Colon Cancer, 0.00019 µg/mL; in the experiment on CCRF-CEM Leukemia it was 0.0052 µg/mL. Moreover, the half-maximal inhibitory concentration (IC50) with L1210 Leukemia is 0.013 µg/mL; in the experiment on MCF-7 Breast Cancer, 0.0013 µg/mL; in the experiment on U251N Brain Cancer, 0.0012 µg/mL; in the experiment on HEP-G2 Liver Cancer, 0.0022 µg/mL; in the experiment with Sarcoma 180 it was 0.0012 µg/mL; in the experiment on OVAR-5 Ovarian Cancer it was 0.0018 µg/mL. Moreover, the results for the half-inhibitory concentration (IC50) (in the experiment with H125 Lung Cancer; in experiment [9]) were 0.0014 µg/mL and 0.00041 µg/mL, respectively. In experiment [5], the “IC50 AVG.” value amounted to 0.0028 µg/mL.
In turn, Asimicin showed a clonogenic survival in experiment [10] (24 h exposure, 10 micrograms/ml) of 0.1. For the same compound, the “effect on clonogenic survival” value in experiment [10] (24 h exposure, concentrations up to 1 microgram/ml) is “no effect”. Besides, the “fold greater cell killing than found with the 24 h exposure” value in experiment [10] (168 h versus 24 h exposure) is roughly 100.000 fold. In addition, the “effect on the survival of the tumor cells” value in [10] (concentration of up to 10 micrograms/ml, exposure time not given) is listed as “no effect”. Further, the “concentration with cell survival at the 0.1 level” value in experiment [10] (extended exposure 168 h) was 200 picograms/ml.
Turning to Vitamin E [reference compound], the IC50 in experiment [1] was greater than 100 µg/mL.

In general, IC50 refers to the concentration that inhibits the measured activity by half.
